pIC50: −log10 of the molar value.
How the values were obtained:
Format in all cases: cell-based
[1] = molecular target: T1, human TLR7 (Homo sapiens, UniProt Q9NYK1); assay: TLR7 inhibition reporter assay (HEK-Blue cells, SEAP reporter); details: HEK-Blue cells overexpressing human TLR7; stimulated with gardiquimod 7.5 μM; SEAP read after 22 hour; dose range 0.05 nM-50 μM
T1 construct: host or cells: HEK-Blue cells
T1 sequence (Q9NYK1 27-1049): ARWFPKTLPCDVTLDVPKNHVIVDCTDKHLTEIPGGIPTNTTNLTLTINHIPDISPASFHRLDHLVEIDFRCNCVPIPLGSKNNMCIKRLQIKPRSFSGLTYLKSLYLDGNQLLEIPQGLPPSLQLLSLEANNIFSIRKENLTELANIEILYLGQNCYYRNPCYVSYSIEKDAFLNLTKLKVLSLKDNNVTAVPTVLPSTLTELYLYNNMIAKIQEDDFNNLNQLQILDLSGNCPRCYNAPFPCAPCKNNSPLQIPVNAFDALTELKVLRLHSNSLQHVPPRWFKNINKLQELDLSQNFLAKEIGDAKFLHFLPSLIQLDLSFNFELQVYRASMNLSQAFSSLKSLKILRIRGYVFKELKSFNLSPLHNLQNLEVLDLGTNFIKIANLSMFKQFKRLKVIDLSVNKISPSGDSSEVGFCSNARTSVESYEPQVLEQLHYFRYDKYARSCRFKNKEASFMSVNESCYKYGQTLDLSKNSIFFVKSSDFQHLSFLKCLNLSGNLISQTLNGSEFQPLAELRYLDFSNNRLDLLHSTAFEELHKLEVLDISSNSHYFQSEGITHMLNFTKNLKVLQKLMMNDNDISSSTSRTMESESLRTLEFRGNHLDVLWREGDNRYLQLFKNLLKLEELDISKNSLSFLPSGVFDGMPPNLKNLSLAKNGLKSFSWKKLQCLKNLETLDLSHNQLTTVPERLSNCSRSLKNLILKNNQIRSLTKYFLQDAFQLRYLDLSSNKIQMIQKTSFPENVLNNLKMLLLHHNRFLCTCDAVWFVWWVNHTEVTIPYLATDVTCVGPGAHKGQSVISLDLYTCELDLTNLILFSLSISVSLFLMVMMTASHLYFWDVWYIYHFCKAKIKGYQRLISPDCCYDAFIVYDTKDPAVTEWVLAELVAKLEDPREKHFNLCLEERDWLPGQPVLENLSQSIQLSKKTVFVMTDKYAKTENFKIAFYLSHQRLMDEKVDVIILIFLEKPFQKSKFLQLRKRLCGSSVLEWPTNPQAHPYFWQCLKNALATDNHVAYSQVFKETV
Method: (§1) HEK-Blue™-cells (Invivogen) overexpressing human TLR7, TLR8 or TLR9 receptors were used for screening inhibitors of these receptors using an inducible SEAP (secreted embryonic alkaline phosphatase) reporter gene under the control of the IFN-β minimal promoter fused to five NF-κB and AP-1-binding sites. Briefly, cells are seeded into Greiner 384 well plates (15000 cells per well for TLR7, 20,000 for TLR8 and 25,000 for TLR9) and then treated with test compounds in DMSO to yield a final dose response concentration range of 0.05 nM-50 μM. After a 30 minute compound pre-treatment at room temperature, the cells are then stimulated with a TLR7 ligand (gardiquimod at a final concentration of 7.5 μM), TLR8 ligand (R848 at a final concentration of 15.9 μM) or TLR9 ligand (ODN2006 at a final concentration of 5 nM) to activate NF-κB and AP-1 which induce the production of SEAP. After a 22 hour incubation at 37° C., 5% CO2, SEAP levels are determined with the addition of HEK-Blue™ Detection reagent (Invivogen), a cell culture medium that allows for detection of SEAP, according to manufacturer's specifications. The percent inhibition is determined as the % reduction in the HEK-Blue signal present in wells treated with agonist plus DMSO alone compared to wells treated with a known inhibitor.

[2] = molecular target: T2, human TLR8 (Homo sapiens, UniProt Q9NR97); assay: TLR8 inhibition reporter assay (HEK-Blue cells, SEAP reporter); details: HEK-Blue cells overexpressing human TLR8; stimulated with R848 15.9 μM; SEAP read after 22 hour; dose range 0.05 nM-50 μM
T2 construct: host or cells: HEK-Blue cells
T2 sequence (Q9NR97 27-1041): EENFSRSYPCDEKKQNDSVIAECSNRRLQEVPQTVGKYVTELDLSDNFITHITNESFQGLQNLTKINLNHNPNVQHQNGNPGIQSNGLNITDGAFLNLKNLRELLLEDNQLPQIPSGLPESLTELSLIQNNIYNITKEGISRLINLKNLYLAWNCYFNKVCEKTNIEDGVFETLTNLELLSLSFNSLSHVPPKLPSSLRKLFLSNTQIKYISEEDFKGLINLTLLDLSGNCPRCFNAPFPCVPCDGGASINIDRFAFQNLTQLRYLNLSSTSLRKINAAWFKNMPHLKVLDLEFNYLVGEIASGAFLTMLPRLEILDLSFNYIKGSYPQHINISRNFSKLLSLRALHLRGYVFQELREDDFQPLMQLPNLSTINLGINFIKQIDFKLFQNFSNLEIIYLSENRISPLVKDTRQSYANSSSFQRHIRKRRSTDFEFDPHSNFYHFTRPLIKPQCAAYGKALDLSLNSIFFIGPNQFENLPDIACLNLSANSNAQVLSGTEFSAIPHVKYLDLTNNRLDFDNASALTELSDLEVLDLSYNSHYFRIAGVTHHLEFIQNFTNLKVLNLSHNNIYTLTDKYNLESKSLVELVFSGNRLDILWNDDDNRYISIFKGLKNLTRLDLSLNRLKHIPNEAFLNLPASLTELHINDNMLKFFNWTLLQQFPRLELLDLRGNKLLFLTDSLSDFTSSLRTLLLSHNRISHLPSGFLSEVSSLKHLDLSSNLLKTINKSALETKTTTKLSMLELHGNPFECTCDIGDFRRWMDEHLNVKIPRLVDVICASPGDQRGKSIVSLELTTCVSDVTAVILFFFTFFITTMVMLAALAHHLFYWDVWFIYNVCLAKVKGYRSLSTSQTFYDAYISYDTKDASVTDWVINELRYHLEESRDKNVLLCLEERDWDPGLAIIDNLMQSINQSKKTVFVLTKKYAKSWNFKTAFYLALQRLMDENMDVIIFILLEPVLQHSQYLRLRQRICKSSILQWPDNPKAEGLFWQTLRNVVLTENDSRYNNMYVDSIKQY
Method: as §1

[3] = molecular target: T3, human TLR9 (Homo sapiens, UniProt Q9NR96); assay: TLR9 inhibition reporter assay (HEK-Blue cells, SEAP reporter); details: HEK-Blue cells overexpressing human TLR9; stimulated with ODN2006 5 nM; SEAP read after 22 hour; dose range 0.05 nM-50 μM
T3 construct: host or cells: HEK-Blue cells
T3 sequence (Q9NR96 26-1032): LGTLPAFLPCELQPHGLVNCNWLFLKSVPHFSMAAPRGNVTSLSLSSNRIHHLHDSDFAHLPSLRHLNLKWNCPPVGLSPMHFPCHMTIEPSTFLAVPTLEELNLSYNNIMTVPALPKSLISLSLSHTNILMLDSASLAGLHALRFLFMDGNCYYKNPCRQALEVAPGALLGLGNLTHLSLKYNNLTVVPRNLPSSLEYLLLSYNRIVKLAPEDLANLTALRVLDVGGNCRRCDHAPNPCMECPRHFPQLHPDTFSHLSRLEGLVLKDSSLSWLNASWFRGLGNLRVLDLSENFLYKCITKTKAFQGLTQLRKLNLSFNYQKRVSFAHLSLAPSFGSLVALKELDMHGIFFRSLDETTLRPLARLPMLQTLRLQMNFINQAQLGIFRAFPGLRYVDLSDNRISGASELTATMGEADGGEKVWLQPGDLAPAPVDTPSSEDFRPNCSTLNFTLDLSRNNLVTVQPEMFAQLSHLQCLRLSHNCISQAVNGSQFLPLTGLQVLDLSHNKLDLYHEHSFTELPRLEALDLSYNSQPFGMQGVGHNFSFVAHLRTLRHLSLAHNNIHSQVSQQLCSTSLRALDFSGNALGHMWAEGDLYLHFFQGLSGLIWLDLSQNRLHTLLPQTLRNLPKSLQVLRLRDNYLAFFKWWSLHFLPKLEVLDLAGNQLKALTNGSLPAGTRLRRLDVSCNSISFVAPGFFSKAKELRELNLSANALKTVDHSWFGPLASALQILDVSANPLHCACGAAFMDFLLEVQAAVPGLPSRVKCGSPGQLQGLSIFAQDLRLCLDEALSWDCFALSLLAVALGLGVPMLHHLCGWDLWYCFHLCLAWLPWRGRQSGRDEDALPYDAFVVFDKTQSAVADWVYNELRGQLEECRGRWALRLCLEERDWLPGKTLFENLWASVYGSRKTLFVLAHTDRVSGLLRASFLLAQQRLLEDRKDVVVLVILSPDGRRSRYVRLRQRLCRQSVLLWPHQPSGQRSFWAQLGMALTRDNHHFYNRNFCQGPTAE
Method: as §1

Row | SMILES | pIC50 [1] | pIC50 [2] | pIC50 [3]
1 | CC(C)N1CCN(c2ccc(-c3ccc4[nH]c(=O)c(-c5ccc(S(C)(=O)=O)cc5)cc4c3)cc2)CC1 [Example 4, 3-(4-methanesulfonylphenyl)-6-{4-[4-(propan-2-yl)piperazin-1-yl]phenyl}-1,2-dihydroquinolin-2-one] | 5.33 | ≤ 4.30 | 6.69
2 | CC(=O)Nc1ccc(-c2cc3cc(-c4ccc(N5CCN(C(C)C)CC5)cc4)ccc3[nH]c2=O)cc1 [Example 5, N-[4-(2-oxo-6-{4-[4-(propan-2-yl)piperazin-1-yl]phenyl}-1,2-dihydroquinolin-3-yl)phenyl]acetamide] | 5.41 | ≤ 4.30 | 7.23
3 | CC(C)N1CCN(c2ccc(-c3ccc4[nH]c(=O)c(-c5ccccn5)cc4c3)cc2)CC1 [Example 6, 6-{4-[4-(propan-2-yl)piperazin-1-yl]phenyl}-3-(pyridin-2-yl)-1,2-dihydroquinolin-2-one] | 5.42 | ≤ 4.30 | 7.10
4 | CC(C)N1CCN(c2ccc(-c3ccc4[nH]c(=O)c(-c5ccc(N(C)C)cc5)cc4c3)cc2)CC1 [Example 9, 3-[4-(dimethylamino)phenyl]-6-{4-[4-(propan-2-yl)piperazin-1-yl]phenyl}-1,2-dihydroquinolin-2-one] | 5.51 | 4.86 | 7.02
5 | CC(C)N1CCN(c2ccc(-c3ccc4[nH]c(=O)c(-c5ccc(S(N)(=O)=O)cc5)cc4c3)cc2)CC1 [Example 11, 4-(2-oxo-6-{4-[4-(propan-2-yl)piperazin-1-yl]phenyl}-1,2-dihydroquinolin-3-yl) benzene-1-sulfonamide] | ≤ 4.30 | 5.69 | 6.92
6 | CC(C)N1CCN(c2ccc(-c3ccc4[nH]c(=O)c(-c5ccc(C#N)cc5)cc4c3)cc2)CC1 [Example 12, 4-(2-oxo-6-{4-[4-(propan-2-yl)piperazin-1-yl]phenyl}-1,2-dihydroquinolin-3-yl)benzonitrile] | 5.52 | 5.12 | 6.92

Continued, values first:

Row | pIC50 [1] | pIC50 [2] | pIC50 [3] | SMILES
7 | 5.95 | ≤ 4.30 | 7.10 | CC(C)N1CCN(c2ccc(-c3ccc4[nH]c(=O)c(-c5ccc(-n6cnnn6)cc5)cc4c3)cc2)CC1 [Example 7, 3-(4-(1H-tetrazol-1-yl)phenyl)-6-(4-(4-isopropylpiperazin-1-yl)phenyl)quinolin-2(1H)-one]
8 | 6.52 | 5.74 | 7.06 | CC(C)N1CCN(c2ccc(-c3ccc4[nH]c(=O)c(-c5cccc(NS(C)(=O)=O)c5)cc4c3)cc2)CC1 [Example 8, N-[3-(2-oxo-6-{4-[4-(propan-2-yl)piperazin-1-yl]phenyl}-1,2-dihydroquinolin-3-yl)phenyl]methanesulfonamide]
9 | ≤ 4.30 | ≤ 4.30 | 6.93 | CC(C)N1CCN(c2ccc(-c3ccc4[nH]c(=O)c(-c5cc(F)c(F)cc5F)cc4c3)cc2)CC1 [Example 10, 6-{4-[4-(propan-2-yl)piperazin-1-yl]phenyl}-3-(2,4,5-trifluorophenyl)-1,2-dihydroquinolin-2-one]
10 | 5.31 | ≤ 4.30 | 6.91 | CC(C)N1CCN(c2ccc(-c3ccc4[nH]c(=O)c(-c5ccc(C(=O)N(C)C6COC6)cc5)cc4c3)cc2)CC1 [Example 13, N-methyl-N-(oxetan-3-yl)-4-(2-oxo-6-{4-[4-(propan-2-yl)piperazin-1-yl]phenyl}-1,2-dihydroquinolin-3-yl)benzamide]
11 | 6.34 | 5.99 | 6.59 | CC(C)N1CCN(c2ccc(-c3ccc4[nH]c(=O)c(-c5ccccc5C#N)cc4c3)cc2)CC1 [Example 15, 2-(2-oxo-6-{4-[4-(propan-2-yl)piperazin-1-yl]phenyl}-1,2-dihydroquinolin-3-yl)benzonitrile]
12 | 5.97 |  | 6.51 | CC(C)N1CCN(c2ccc(-c3ccc4[nH]c(=O)c(-c5cncnc5)cc4c3)cc2)CC1 [Example 34, 6-{4-[4-(propan-2-yl)piperazin-1-yl]phenyl}-3-(pyrimidin-5-yl)-1,2-dihydroquinolin-2-one]
13 |  | 6.93 | 6.35 | CC(C)N1CCC(c2ccc(-c3ccc4[nH]c(=O)c(-c5ccc(N(C)C)cc5)cc4c3)cc2)CC1 [Example 88, 3-[4-(dimethylamino)phenyl]-6-{4-[1-(propan-2-yl)piperidin-4-yl]phenyl}-1,2-dihydroquinolin-2-one]

— patent US20260183275A1, “SUBSTITUTED QUINOLONE COMPOUNDS USEFUL AS INHIBITORS OF TLR9” (Bristol-Myers Squibb Company, priority 2022, published 2026)
